Consider one molecule from patent US20230391826A1, “COMPOSITIONS AND METHODS FOR TREATING DISEASES” (Sanford Burnham Prebys Medical Discovery Institute, priority 2020, published 2023).

Usually solubility stands for how much of the substance goes into solution per volume.

The nature of data set [1]: Peptide solubility in PBS/H2O/DMSO. It is filed as physicochemical. On the procedure:
Peptide identity and purity are documented by mass spectrometry and high-performance liquid chromatography (HPLC). The peptide solubility values are determined. Concentrated peptide stocks are prepared in DMSO or H2O and stored frozen at −80° C.

Data set [2] addresses T1, EphA2 extracellular domain fused to Fc (EphA2-Fc) (Homo sapiens, UniProt P29317).
T1 construct: immobilized EphA2 extracellular domain fused to the Fc portion of an antibody (EphA2-Fc)
The experiment in a line: ELISA: inhibition of ephrinA5-AP binding to immobilized EphA2-Fc. Particulars: Table 3; inhibition of EphA2-ephrinA5 interaction; averages ± SD; read-out: ICsa (nM) by ELISA. From the text:
FIG. 1A-1C illustrates an example of Potency and selectivity of EphA2-targeting dimeric peptides. (FIG. 1A) ELISAs comparing the ability of the peptides to inhibit binding of ephrin-A5 fused to alkaline phosphatase (ephrinA5-AP) to the immobilized EphA2 extracellular domain fused to the Fc portion of an antibody (EphA2-Fc). The graphs show averages ±SD from triplicate measurements from a representative experiment. IC50 values calculated from the fitted curves in each experiment are shown. Averages of IC50 values obtained from multiple experiments are shown in panel FIG. 1B and Table 3. The 10 nM peptide concentration is outlined in red. (FIG. 1B) Plot of the average IC50 values (listed in Table 3) for different ligands. […] (FIG. 1C) EphrinA5-AP binding to EphA receptors and ephrinB2-AP binding to EphB receptors in the presence of dimeric peptides representing each of the three configurations. Values are normalized to ephrin binding without peptide. The graphs show averages and SDs from triplicate measurements (with each measurement shown as a dot).
Background: An ELISA detects its analyte on a solid surface through an enzyme-linked reagent.

The target of data set [3] is EphA2 (Homo sapiens, UniProt P29317). The experiment in a line: Quantitative FRET of EphA2 oligomerization in transiently transfected HEK293 cells. It is filed as cell-based. Further details: expressed in transfected cells; host or cells: HEK293 (HEK293T), transient transfection. From the text:
FIG. 4A-4E illustrates an example where dimers with different configurations induce EphA2 oligomerization and patching on the cell surface. (FIG. 4A-4D) Oligomerization curves comparing EphA2 WT and the G131Y and L223R/L254R/[…] interface mutants transiently expressed in HEK293 cells and treated with saturating concentrations of C-terminally linked dimer (2) or N-terminally linked dimer (5). The curves were obtained by fitting quantitative FRET data to monomer-oligomer models. […] Curves for higher order oligomerization are steeper than dimerization curves. (FIG. 4E) Two-photon integrated fluorescence images of HEK293 cells expressing EphA2-EYFP and EphA2-mTURQ and under hypo-osmotic conditions. The plasma membrane regions in the rectangular yellow outlines are enlarged in the insets at the bottom of each panel. […]
To examine the effects of dimeric peptide ligands on EphA2 oligomerization (including dimerization and higher order clustering), quantitative FRET experiments were performed in live cells. […] FRET is then measured in hundreds of individual cells with different EphA2 expression levels (FIG. 12), and the data are combined to yield average oligomeric fractions at different EphA2 concentrations (FIG. 4A-4D). […]
To obtain the data points for oligomerization curves (FIG. 12), the concentration of EphA2 in each small region of plasma membrane in which FRET efficiency was measured. […]

Structures are written as SMILES. In brackets after ≈: the same amount, converted by molar mass. Several values for one entry are separate records, joined by “and”; a condition that tells them apart may be missing. Equal values may be shown once. Read-outs that look alike come from different tables or passages of the source.

Sequence of EphA2 (P29317 24-976): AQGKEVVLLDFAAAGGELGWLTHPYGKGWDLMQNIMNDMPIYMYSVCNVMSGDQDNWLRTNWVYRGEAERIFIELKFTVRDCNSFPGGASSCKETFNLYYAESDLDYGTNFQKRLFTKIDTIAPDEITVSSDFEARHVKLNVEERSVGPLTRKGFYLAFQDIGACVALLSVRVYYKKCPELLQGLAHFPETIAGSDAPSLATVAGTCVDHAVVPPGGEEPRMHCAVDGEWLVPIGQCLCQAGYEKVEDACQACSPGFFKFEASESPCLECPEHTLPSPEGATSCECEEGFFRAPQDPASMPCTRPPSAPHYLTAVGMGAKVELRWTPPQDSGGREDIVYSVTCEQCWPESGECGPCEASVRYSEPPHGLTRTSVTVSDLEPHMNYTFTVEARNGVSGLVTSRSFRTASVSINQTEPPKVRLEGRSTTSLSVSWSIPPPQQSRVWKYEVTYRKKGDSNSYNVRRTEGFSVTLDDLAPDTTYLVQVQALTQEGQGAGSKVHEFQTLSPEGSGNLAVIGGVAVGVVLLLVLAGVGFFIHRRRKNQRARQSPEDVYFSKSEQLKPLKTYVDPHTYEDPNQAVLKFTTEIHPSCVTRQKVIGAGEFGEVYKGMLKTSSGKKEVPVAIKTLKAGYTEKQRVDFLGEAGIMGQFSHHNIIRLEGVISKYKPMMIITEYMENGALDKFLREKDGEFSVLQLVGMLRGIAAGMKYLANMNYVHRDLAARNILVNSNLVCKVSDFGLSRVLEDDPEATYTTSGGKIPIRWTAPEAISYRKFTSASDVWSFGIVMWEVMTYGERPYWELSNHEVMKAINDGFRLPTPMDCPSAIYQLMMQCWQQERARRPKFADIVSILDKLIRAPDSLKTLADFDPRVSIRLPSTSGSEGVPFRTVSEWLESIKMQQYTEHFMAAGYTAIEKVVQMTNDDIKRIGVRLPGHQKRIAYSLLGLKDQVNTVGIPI
T1 sequence (P29317 24-537 limits assumed): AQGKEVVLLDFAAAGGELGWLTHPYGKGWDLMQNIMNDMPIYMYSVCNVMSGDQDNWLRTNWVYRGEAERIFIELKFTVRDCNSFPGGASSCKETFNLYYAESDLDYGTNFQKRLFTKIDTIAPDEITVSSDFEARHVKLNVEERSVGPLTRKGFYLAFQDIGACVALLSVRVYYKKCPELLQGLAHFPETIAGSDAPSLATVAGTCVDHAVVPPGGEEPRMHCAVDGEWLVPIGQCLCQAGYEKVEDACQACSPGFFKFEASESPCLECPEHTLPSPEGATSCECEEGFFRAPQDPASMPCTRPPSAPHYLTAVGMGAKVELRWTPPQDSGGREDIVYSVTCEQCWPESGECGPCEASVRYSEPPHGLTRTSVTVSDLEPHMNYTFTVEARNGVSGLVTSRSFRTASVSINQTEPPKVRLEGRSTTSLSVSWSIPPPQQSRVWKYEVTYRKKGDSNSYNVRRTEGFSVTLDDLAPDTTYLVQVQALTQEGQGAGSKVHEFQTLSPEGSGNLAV

For `CC(C)C[C@H](NC(=O)[C@H](Cc1c[nH]c2ccccc12)NC(=O)[C@H](C)NC(=O)CNC(=O)[C@@H](N)CSSC[C@H](N)C(=O)NCC(=O)N[C@@H](C)C(=O)N[C@@H](Cc1c[nH]c2ccccc12)C(=O)N[C@@H](CC(C)C)C(=O)N[C@@H](C)C(=O)N[C@@H](Cc1ccc(O)cc1)C(=O)N1CCC[C@H]1C(=O)N[C@@H](CC(=O)O)C(=O)N[C@@H](CO)C(=O)N[C@H](C(=O)N1CCC[C@H]1C(=O)N[C@@H](Cc1ccc(O)cc1)C(=O)N[C@@H](CCCNC(=N)N)C(=O)N1CCC[C@H]1C(=O)N[C@@H](CCCCN)C(=O)O)C(C)C)C(=O)N[C@@H](C)C(=O)N[C@@H](Cc1ccc(O)cc1)C(=O)N1CCC[C@H]1C(=O)N[C@@H](CC(=O)O)C(=O)N[C@@H](CO)C(=O)N[C@H](C(=O)N1CCC[C@H]1C(=O)N[C@@H](Cc1ccc(O)cc1)C(=O)N[C@@H](CCCNC(=N)N)C(=O)N1CCC[C@H]1C(=O)N[C@@H](CCCCN)C(=O)O)C(C)C` [compound 5, CGA-WLA-YRPK dimer (N-ter)], the solubility in data set [1] (DMSO, third of PBS/H2O/DMSO, read-out: Solubility in DMSO) was 15000 µg/mL (≈ 4120 µM); in data set [1] (PBS, Table 4, first of PBS/H20/DMSO, read-out: Solubility in PBS) it was 5000 µg/mL (≈ 1370 µM); in data set [1] (PBS, first of PBS/H2O/DMSO, read-out: Solubility in PBS), 5000 µg/mL (≈ 1370 µM); in data set [1] (water, Table 4, second of PBS/H20/DMSO, read-out: Solubility in H20), 5000 µg/mL (≈ 1370 µM); in data set [1] (water, second of PBS/H2O/DMSO, read-out: Solubility in H2O), 5000 µg/mL (≈ 1370 µM). Moreover, the IC50 in data set [2] was 0.65 nM and 0.66 nM. In data set [3] (saturating peptide, HEK293 cells), the “best-fit FRET oligomerization model, EphA2 WT” value is reported as “higher order oligomer model”. For the same molecule, the “EphA2 patches on the plasma membrane, EphA2 WT” value in data set [3] (swollen HEK293 cells) is reported as “formation of fluorescent patches”.
